Test system: Primary human T cells expressing FMC63-CAR with ERa LBD fusion
Experiment: Brefeldin A block of ligand-induced surface trafficking
Format: cell-based
Settings: 1 uM pre-treatment; then 500 ng/mL 4-OHT two hours
Experimental: Primary human T cells expressing FMC63-CAR with ERa LBD fusion were left untreated or were treated with 500 ng/mL 4-OHT ligand for two hours to induce surface expression of the CAR. Prior to 4-OHT treatment, half the cells were pre-treated with 1 uM Brefeldin A (FIG. 12, bottom two panels) to inhibit protein export from the Golgi.

Compound: C[C@H]1CCC/C=C/[C@@H]2C[C@H](O)C[C@H]2[C@H](O)/C=C/C(=O)O1 [Brefeldin A]
- effect on 4-OHT-induced surface protein expression: prevented 4-OHT-induced increase in surface protein expression

Source: patent US11993660B2, “Chimeric polypeptides and methods of altering the membrane localization of the same” (Cell Design Labs, Inc., priority 2017, dated 2024)
